In patent US20210267944A1 (BioXcel Therapeutics, Inc., priority 2018, published 2021):
Counter-ions that a name gives are not always drawn. Like-named read-outs stand apart in the source and are kept apart here.

Conditions: for Diastolic blood pressure Mean ± SD / Diastolic blood pressure Median / Diastolic blood pressure Min / Heart rate Max / Heart rate Mean ± SD / Heart rate Median / Heart rate Min / Diastolic blood pressure Max / Systolic blood pressure, Max / Systolic blood pressure, Mean ± SD / Systolic blood pressure, Median / Systolic blood pressure, Min: opioid withdrawal patients
Excerpt: The participants were continuously monitored by the site personnel, including blood pressure and heart rate, from the start of the infusion through resolution of sedation and/or any adverse effects on blood pressure or heart rate. An electrocardiogram was obtained at screening, pre-infusion and upon resolution of sedation, a predetermined reduction in COWS or return to baseline.

[1] = Day-1, 30 min. post Infusion, n=11
[2] = Day-2, 30 min. post Infusion, n=5
[3] = opioid withdrawal, during infusion

Q: Which results are given for `Cc1cccc([C@H](C)c2cnc[nH]2)c1C` [dexmedetomidine hydrochloride]?
A: Diastolic blood pressure Mean ± SD (Day-2, 01:15 Hr): 78.5 ± 22.5 mm of Hg; Diastolic blood pressure Median (Day-2, 01:15 Hr): 78.5 mm of Hg; Diastolic blood pressure Min (Day-2, 01:15 Hr): 56 mm of Hg; Heart rate Max (Day-2, 01:15 Hr): 100 beats/minutes; Heart rate Mean ± SD (Day-2, 01:15 Hr): 88 ± 12 beats/minutes; Heart rate Median (Day-2, 01:15 Hr): 88 beats/minutes; Heart rate Min (Day-2, 01:15 Hr): 76 beats/minutes; Diastolic blood pressure Max (Day-2, 01:30 Hr): 75 mm of Hg; Diastolic blood pressure Mean ± SD (Day-2, 01:30 Hr): 75 mm of Hg; Diastolic blood pressure Median (Day-2, 01:30 Hr): 75 mm of Hg; Diastolic blood pressure Min (Day-2, 01:30 Hr): 75 mm of Hg; Heart rate Max (Day-2, 01:30 Hr): 73 beats/minutes; Heart rate Mean ± SD (Day-2, 01:30 Hr): 73 beats/minutes; Heart rate Median (Day-2, 01:30 Hr): 73 beats/minutes; Heart rate Min (Day-2, 01:30 Hr): 73 beats/minutes; Diastolic blood pressure Max (Day-2, 01:45 Hr): 89 mm of Hg; Diastolic blood pressure Mean ± SD (Day-2, 01:45 Hr): 89 mm of Hg; Diastolic blood pressure Median (Day-2, 01:45 Hr): 89 mm of Hg; Diastolic blood pressure Min (Day-2, 01:45 Hr): 89 mm of Hg; Heart rate Max (Day-2, 01:45 Hr): 92 beats/minutes; Heart rate Mean ± SD (Day-2, 01:45 Hr): 92 beats/minutes; Heart rate Median (Day-2, 01:45 Hr): 92 beats/minutes; Heart rate Min (Day-2, 01:45 Hr): 92 beats/minutes; Diastolic blood pressure Max (Day-2, 02:00 Hr): 90 mm of Hg; Diastolic blood pressure Mean ± SD (Day-2, 02:00 Hr): 90 mm of Hg; Diastolic blood pressure Median (Day-2, 02:00 Hr): 90 mm of Hg; Diastolic blood pressure Min (Day-2, 02:00 Hr): 90 mm of Hg; Heart rate Max (Day-2, 02:00 Hr): 94 beats/minutes; Heart rate Mean ± SD (Day-2, 02:00 Hr): 94 beats/minutes; Heart rate Median (Day-2, 02:00 Hr): 94 beats/minutes; Heart rate Min (Day-2, 02:00 Hr): 94 beats/minutes; Diastolic blood pressure Max (Day-2, 30 min. post Infusion): 98 mm of Hg; Diastolic blood pressure Mean ± SD (Day-2, 30 min. post Infusion): 84.4 ± 9.24 mm of Hg; Diastolic blood pressure Median (Day-2, 30 min. post Infusion): 86 mm of Hg; Diastolic blood pressure Min (Day-2, 30 min. post Infusion): 70 mm of Hg; Heart rate Max (Day-2, 30 min. post Infusion): 90 beats/minutes; Heart rate Mean ± SD (Day-2, 30 min. post Infusion): 70.8 ± 15.72 beats/minutes; Heart rate Median (Day-2, 30 min. post Infusion): 60 beats/minutes; Heart rate Min (Day-2, 30 min. post Infusion): 56 beats/minutes; all the vital signs values (opioid withdrawal): within clinically acceptable limits; Systolic blood pressure, Max (Day-1, 00:00 Hr, n=11): 178 mm of Hg; Systolic blood pressure, Mean ± SD (Day-1, 00:00 Hr, n=11): 134 ± 15.77 mm of Hg; Systolic blood pressure, Median (Day-1, 00:00 Hr, n=11): 127 mm of Hg; Systolic blood pressure, Min (Day-1, 00:00 Hr, n=11): 120 mm of Hg; Systolic blood pressure, Max (Day-1, 00:15 Hr, n=11): 157 mm of Hg; Systolic blood pressure, Mean ± SD (Day-1, 00:15 Hr, n=11): 129.73 ± 13.68 mm of Hg; Systolic blood pressure, Median (Day-1, 00:15 Hr, n=11): 127 mm of Hg; Systolic blood pressure, Min (Day-1, 00:15 Hr, n=11): 112 mm of Hg; Systolic blood pressure, Max (Day-1, 00:30 Hr, n=9): 160 mm of Hg; Systolic blood pressure, Mean ± SD (Day-1, 00:30 Hr, n=9): 124.78 ± 15.55 mm of Hg; Systolic blood pressure, Median (Day-1, 00:30 Hr, n=9): 128 mm of Hg; Systolic blood pressure, Min (Day-1, 00:30 Hr, n=9): 107 mm of Hg; Systolic blood pressure, Max (Day-1, 00:45 Hr, n=6): 125 mm of Hg; Systolic blood pressure, Mean ± SD (Day-1, 00:45 Hr, n=6): 113 ± 8.24 mm of Hg; Systolic blood pressure, Median (Day-1, 00:45 Hr, n=6): 114 mm of Hg; Systolic blood pressure, Min (Day-1, 00:45 Hr, n=6): 100 mm of Hg; Systolic blood pressure, Max (Day-1, 01:00 Hr, n=5): 120 mm of Hg; Systolic blood pressure, Mean ± SD (Day-1, 01:00 Hr, n=5): 114 ± 4.85 mm of Hg; Systolic blood pressure, Median (Day-1, 01:00 Hr, n=5): 115 mm of Hg; Systolic blood pressure, Min (Day-1, 01:00 Hr, n=5): 107 mm of Hg; Systolic blood pressure, Max (Day-1, 01:15 Hr, n=3): 112 mm of Hg; Systolic blood pressure, Mean ± SD (Day-1, 01:15 Hr, n=3): 110 ± 1.63 mm of Hg; Systolic blood pressure, Median (Day-1, 01:15 Hr, n=3): 110 mm of Hg; Systolic blood pressure, Min (Day-1, 01:15 Hr, n=3): 108 mm of Hg; Systolic blood pressure, Max (Day-1, 01:30 Hr, n=2): 112 mm of Hg; Systolic blood pressure, Mean ± SD (Day-1, 01:30 Hr, n=2): 106.5 ± 5.5 mm of Hg; Systolic blood pressure, Median (Day-1, 01:30 Hr, n=2): 106.5 mm of Hg; Systolic blood pressure, Min (Day-1, 01:30 Hr, n=2): 101 mm of Hg; Systolic blood pressure, Max [1]: 160 mm of Hg; Systolic blood pressure, Mean ± SD [1]: 130.91 ± 18.09 mm of Hg; Systolic blood pressure, Median [1]: 129 mm of Hg; Systolic blood pressure, Min [1]: 108 mm of Hg; Systolic blood pressure, Max (Day-1, Screening, n=11): 170 mm of Hg; Systolic blood pressure, Mean ± SD (Day-1, Screening, n=11): 130.36 ± 16.92 mm of Hg; Systolic blood pressure, Median (Day-1, Screening, n=11): 127 mm of Hg; Systolic blood pressure, Min (Day-1, Screening, n=11): 110 mm of Hg; Systolic blood pressure, Max (Day-2, 00:00 Hr, n=5): 141 mm of Hg; Systolic blood pressure, Mean ± SD (Day-2, 00:00 Hr, n=5): 127.2 ± 11.37 mm of Hg; Systolic blood pressure, Median (Day-2, 00:00 Hr, n=5): 133 mm of Hg; Systolic blood pressure, Min (Day-2, 00:00 Hr, n=5): 109 mm of Hg; Systolic blood pressure, Max (Day-2, 00:15 Hr, n=5): 139 mm of Hg; Systolic blood pressure, Mean ± SD (Day-2, 00:15 Hr, n=5): 123.6 ± 13.41 mm of Hg; Systolic blood pressure, Median (Day-2, 00:15 Hr, n=5): 131 mm of Hg; Systolic blood pressure, Min (Day-2, 00:15 Hr, n=5): 103 mm of Hg; Systolic blood pressure, Max (Day-2, 00:30 Hr, n=5): 137 mm of Hg; Systolic blood pressure, Mean ± SD (Day-2, 00:30 Hr, n=5): 121.6 ± 12.15 mm of Hg; Systolic blood pressure, Median (Day-2, 00:30 Hr, n=5): 125 mm of Hg; Systolic blood pressure, Min (Day-2, 00:30 Hr, n=5): 106 mm of Hg; Systolic blood pressure, Max (Day-2, 00:45 Hr, n=4): 131 mm of Hg; Systolic blood pressure, Mean ± SD (Day-2, 00:45 Hr, n=4): 123.15 ± 9.17 mm of Hg; Systolic blood pressure, Median (Day-2, 00:45 Hr, n=4): 128 mm of Hg; Systolic blood pressure, Min (Day-2, 00:45 Hr, n=4): 108 mm of Hg; Systolic blood pressure, Max (Day-2, 01:00 Hr, n=3): 132 mm of Hg; Systolic blood pressure, Mean ± SD (Day-2, 01:00 Hr, n=3): 124.33 ± 9.46 mm of Hg; Systolic blood pressure, Median (Day-2, 01:00 Hr, n=3): 130 mm of Hg; Systolic blood pressure, Min (Day-2, 01:00 Hr, n=3): 111 mm of Hg; Systolic blood pressure, Max (Day-2, 01:15 Hr, n=2): 130 mm of Hg; Systolic blood pressure, Mean ± SD (Day-2, 01:15 Hr, n=2): 115.5 ± 14.5 mm of Hg; Systolic blood pressure, Median (Day-2, 01:15 Hr, n=2): 115.5 mm of Hg; Systolic blood pressure, Min (Day-2, 01:15 Hr, n=2): 101 mm of Hg; Systolic blood pressure, Mean ± SD (Day-2, 01:30 Hr, n=1): 114 mm of Hg; Systolic blood pressure, Median (Day-2, 01:30 Hr, n=1): 114 mm of Hg; Systolic blood pressure, Mean ± SD (Day-2, 01:45 Hr, n=1): 112 mm of Hg; Systolic blood pressure, Median (Day-2, 01:45 Hr, n=1): 112 mm of Hg; Systolic blood pressure, Mean ± SD (Day-2, 02:00 Hr, n=1): 114 mm of Hg; Systolic blood pressure, Median (Day-2, 02:00 Hr, n=1): 114 mm of Hg; Systolic blood pressure, Max [2]: 146 mm of Hg; Systolic blood pressure, Mean ± SD [2]: 127.6 ± 13.1 mm of Hg; Systolic blood pressure, Median [2]: 130 mm of Hg; Systolic blood pressure, Min [2]: 110 mm of Hg; Diastolic blood pressure mean values, in words [3]: within clinically acceptable limits; Heart rate mean values, in words [3]: within clinically acceptable limits; Systolic blood pressure mean values, in words [3]: within clinically acceptable limits; heart rate at which stopping criteria was met (opioid withdrawal, one patient, after 15 minutes): ≤ 50
